Assay results taken from US20080145313A1, “Compositions and Methods for the Treatment and Prevention of Neoplastic Disorders” (Genesis Research & Development Corporation Limited, priority 2006, published 2008).

test system: A549 cells; assay: Growth inhibition of siRNA-transfected A549 cells, SYBR Green I DNA content; assay type: cell-based, human; details: 10 nM siRNA; DNA content 96 hours after transfection
Description: A549 cells (human lung cancer cell line; ATCC No. CCL-185), SK-MeI-5 cells (human melanoma cell line; ATCC No. HTB-70), MCF-7 cells (human adenocarcinoma cell line; ATCC No. HTB-22), HCT-116 cells (colorectal carcinoma; ATCC CCL-247) and HCT-116 p53 null cells (derived from ATCC No. CCL-247; Bunz et al., Science 282:1497-1501, 1998) were cultured in RPMI 1640 medium with 10% v/v heat-inactivated fetal calf serum (FCS). Cells were seeded at a density of 5×10^4 cells/cm^2 in multi-well tissue culture plates. Sequences of Stealth™ siRNA duplexes (Invitrogen) targeting human ribonucleotide reductase subunit 1 (SEQ ID NO: 22) and subunit 2 (SEQ ID NO; 38) are given in SEQ ID NO: 4830-4832 (DNA), and SEQ ID NO: 5136-5138 (RNA) for RRM1, and SEQ ID NO: 5306-5308 (DNA), and SEQ ID NO: 5303-5305 (RNA) for RRM2. siRNAs were transfected at different concentrations into cells using Lipofectamine™ RNAiMAX transfection reagent (Invitrogen). Non-specific siRNA (SEQ ID NO: 4804 and 4805 (DNA), and SEQ ID NO: 5301 and 5302 (RNA)) were used as controls. The cellular DNA content was measured using a SYBR Green I-based fluorometric assay at 24, 48, 72 and 96 hours after transfection (120 hours for the MCF-7 cells), as follows. At the indicated time points following reverse transfection, cells were harvested and frozen at −80° C. overnight. Cells were thawed and cell lysis buffer (phosphate-buffered saline (PBS) containing 1% Triton X-100, pH 7) and SYBR Green I (1:10^5 V/V; Invitrogen) was added to the wells and incubated overnight in the dark at 4° C.
The following day, cell lysates were mixed thoroughly, and DNA fluorescence was measured with a Wallac Victor^2 plate reader (Turku, Finland) set at an excitation frequency of 485 nm and measuring emission at 535 nm.
To determine the duration of the knock-down effect of RRM1-targeting siRNA, A549 cells were reverse transfected with 1 or 10 nM RRM1-3 (SEQ ID NO: 4832 (DNA, and SEQ ID NO: 5138 (RNA)) or control siRNA (SEQ ID NO: 4804 (DNA), and SEQ ID NO: 5301 (RNA)), and growth followed over time. Growth inhibition was measured daily as described above for up to ten days. RRM1-3-mediated RRM1 silencing inhibited growth for at least 10 days post-transfection at both 1 and 10 nM (FIG. 11).
siRNA-mediated inhibition of cancer cell growth was determined in A549 cells as follows. A549 cells (human lung cancer cell line; ATCC No. CCL-185) were cultured in RPMI 1640 medium with 10% v/v heat-inactivated fetal calf serum. Cells were seeded at a density of 5×10^3 cells/cm^2 in multi-well tissue culture plates. Stealth™ siRNA duplexes (Invitrogen) targeting genes involved in cancer energy and metabolism pathways and listed in Table 9, were transfected at 10 nM into cells using Lipofectamine™ RNAiMAX transfection reagent (Invitrogen). Non-specific siRNA (SEQ ID NO: 4804 and 4805 (DNA), and SEQ ID NO: 5301 and 5302 (RNA)) were used as controls. The cellular DNA content was measured using a SYBR Green I-based fluorometric assay at 96 hours after transfection. The cells were harvested and frozen at −80° C. overnight. Cells were thawed and cell lysis buffer (phosphate-buffered saline (PBS) containing 1% Triton X-100, pH 7) and SYBR Green I (1:10^5 v/v; Invitrogen) was added to the wells and incubated overnight in the dark at 4° C. The following day, cell lysates were mixed thoroughly, and DNA fluorescence was measured with a Wallac Victor^2 plate reader (Turku, Finland) set at an excitation frequency of 485 nm and measuring emission at 535 nm.
Three different siRNAs were tested for each target gene. The average fluorescence units from three replicate wells, representing the amount of DNA per well, were used to determine the effect on growth inhibition. The results are given in Table 10 (energy and metabolism gene targets) and Table 11 (transporter gene targets).
siRNA-mediated RNAi was also determined on a panel of different cell lines. […]

Growth Inhibition in A549 cells, − (no growth inhibition with any siRNA):
SEQ ID NO: 4864: siRNA targeting SLC25A6 (ANT3) (chain 1 AAATCCAGCGGGTACACGAAGCAGA; chain 2 AAAUCCAGCGGGUACACGAAGCAGA; Both strands are one antisense strand in DNA/RNA notation, chemistry not given here, further chemistry not given here; one strand in two spellings)
SEQ ID NO: 4841: siRNA targeting AK1 (chain 1 AAACTCTTCTCCTTGCTGCACCTCC; chain 2 AAACUCUUCUCCUUGCUGCACCUCC; chemistry not given here; one strand in two spellings)
SEQ ID NO: 4826: siRNA targeting CPS1 (chain 1 TTCCCAAGCATGGTACCCTTATCCC; chain 2 UUCCCAAGCAUGGUACCCUUAUCCC; chemistry not given here; one strand in two spellings)
SEQ ID NO: 4821: siRNA targeting PRPS1 (chain 1 AATTGTCATTGATTTCGCCACAACC; chain 2 AAUUGUCAUUGAUUUCGCCACAACC; chemistry not given here; one strand in two spellings)
SEQ ID NO: 5000: siRNA targeting UMPS (chain 1 GCTGTTGCAGCTAGCAGATGCTTTA; chain 2 GCUGUUGCAGCUAGCAGAUGCUUUA; chemistry not given here; one strand in two spellings)
SEQ ID NO: 4814: siRNA targeting HK-II (chain 1 TTAACAATGATGCTGTCGTCACAGG; chain 2 UUAACAAUGAUGCUGUCGUCACAGG; chemistry not given here; one strand in two spellings)
SEQ ID NO: 4854: siRNA targeting FASN (chain 1 ATGAAGCTCACCCAGTTATCCTTCC; chain 2 AUGAAGCUCACCCAGUUAUCCUUCC; Both strands are one antisense strand in DNA/RNA notation, chemistry not given here, further chemistry not given here; one strand in two spellings)
SEQ ID NO: 4856: siRNA targeting FASN (chain 1 CTTCGATGTATTCAAATGACTCAGG; chain 2 CUUCGAUGUAUUCAAAUGACUCAGG; Both strands are one antisense strand in DNA/RNA notation, chemistry not given here, further chemistry not given here; one strand in two spellings)
SEQ ID NO: 4992: siRNA targeting TK2 (chain 1 GGGATCGAATATTAACTCCAGAGAA; chain 2 GGGAUCGAAUAUUAACUCCAGAGAA; chemistry not given here; one strand in two spellings)
SEQ ID NO: 4989: siRNA targeting TK1 (chain 1 GCGTGGCTGTCATAGGCATCGACGA; chain 2 GCGUGGCUGUCAUAGGCAUCGACGA; chemistry not given here; one strand in two spellings)
SEQ ID NO: 4873: siRNA targeting RRM2B (chain 1 TTTACTAAGTATTGGAACATCAGGC; chain 2 UUUACUAAGUAUUGGAACAUCAGGC; Both strands are one antisense strand in DNA/RNA notation, chemistry not given here, further chemistry not given here; one strand in two spellings)
SEQ ID NO: 4819: siRNA targeting PFKL (chain 1 TAGTAGTCATGGCACTTCTCGTTCC; chain 2 UAGUAGUCAUGGCACUUCUCGUUCC; chemistry not given here; one strand in two spellings)
SEQ ID NO: 4987: siRNA targeting DCK (chain 1 CAAGACTGGCATGACTGGATGAATA; chain 2 CAAGACUGGCAUGACUGGAUGAAUA; Both strands are one antisense strand in DNA/RNA notation, chemistry not given here, further chemistry not given here; one strand in two spellings)
SEQ ID NO: 4876: siRNA targeting CTPS (chain 1 ATAAAGGGCATGCTTTCTATGTCCC; chain 2 AUAAAGGGCAUGCUUUCUAUGUCCC; Both strands are one antisense strand in DNA/RNA notation, chemistry not given here, further chemistry not given here; one strand in two spellings)

Growth Inhibition in A549 cells, + (inhibits by at least 50%):
SEQ ID NO: 4999: siRNA targeting UMPS (chain 1 TGGAAACTGTTGAGGTTCTTCAGAA; chain 2 UGGAAACUGUUGAGGUUCUUCAGAA; chemistry not given here; one strand in two spellings)
SEQ ID NO: 4857: siRNA targeting ACLY (chain 1 ATAGTTTGCCAGCTCGTTGACACCC; chain 2 AUAGUUUGCCAGCUCGUUGACACCC; Both strands are one antisense strand in DNA/RNA notation, chemistry not given here, further chemistry not given here; one strand in two spellings)
SEQ ID NO: 4816: siRNA targeting LDHA/5 (chain 1 AAATATGTTCACGTTACGCTGGACC; chain 2 AAAUAUGUUCACGUUACGCUGGACC; chemistry not given here; one strand in two spellings)
SEQ ID NO: 4853: siRNA targeting ATP5B (chain 1 TATACCAGCGCTACCTTAGAGGTGG; chain 2 UAUACCAGCGCUACCUUAGAGGUGG; Both strands are one antisense strand in DNA/RNA notation, chemistry not given here, further chemistry not given here; one strand in two spellings)

Growth Inhibition in A549 cells, ++ (inhibits by at least 75%):
SEQ ID NO: 4824: siRNA targeting CPS1 (chain 1 ATATGATGCAGCCACCACATGCCTC; chain 2 AUAUGAUGCAGCCACCACAUGCCUC; chemistry not given here; one strand in two spellings)

same assay, conditions: 10 nM siRNA; up to 120 hours post-transfection (FIG. 8)

Growth inhibition, A549, No inhibition of growth:
SEQ ID NO: 4873: siRNA targeting RRM2B (chain 1 TTTACTAAGTATTGGAACATCAGGC; chain 2 UUUACUAAGUAUUGGAACAUCAGGC; Both strands are one antisense strand in DNA/RNA notation, chemistry not given here, further chemistry not given here; one strand in two spellings)
